Laboratory results: PMC12030627, “Radioiodinated Bicyclic RGD Peptide Derivatives for Enhanced Tumor Accumulation” (Pharmaceuticals, 2025)
Starred links: 1 amine or outer side, 2 acyl side, 3 side chain; linkers in the order of their positions; H or OH if unused. Positions of bridges follow the written chain, without caps; N, C: chain ends. Non-standard residues stand in square brackets, D forms with d. Residues, ends and D or L forms follow the SMILES beside them. *: point of attachment. Butanoyl(4-(4-I-phenyl)) = O=C(CCCc1ccc(I)cc1)*; TBMB = c1c(C[*:1])cc(C[*:3])cc1C[*:2]; Palmitoyl = CCCCCCCCCCCCCCCC(=O)*; Benzoyl(3-I) = O=C(c1cccc(I)c1)*; 4Abz = Nc1ccc(C(=O)O)cc1

Test system: U-87 MG-bearing mice
Assay: Biodistribution in U-87 MG tumor-bearing mice
Type: in vivo, BALB/c nu-nu mice
Conditions: U-87 MG-bearing mice, mean ± SD, n = 3
Procedure: Animal experiments were performed in compliance with institutional animal care regulations, with the study protocol approved by the Experimental Animal Committee of Osaka Medical and Pharmaceutical University (Approval Numbers: 21–76, 22–76, and 23–76). Four-week-old male BALB/c nu-nu mice (Japan SLC, Shizuoka, Japan) were housed under a 12 h light/12 h dark cycle with free access to food and water. Tumor-bearing mice were established by suspending U-87 MG cells (2 × 10^6 cells/mouse) in PBS(–) and subcutaneously injecting 100 μL of the suspension into the right hind leg. For co-implantation models, A549 cells (2 × 10^6 cells/mouse) were suspended in PBS(–) and inoculated (100 μL) into the left hind leg of the same mice already inoculated with U-87 MG cells. Mice with tumor size approximately 10 mm in diameter, 4–5 weeks after inoculation, were used for biodistribution studies. Animals in which either tumor was not viable were excluded from the experiment.
U-87 MG-bearing mice (n = 42, 8–9 weeks old; 22–27 g) were randomly assigned into groups and administered [^125I]bcRGDpal or [^125I]bcRGDiba via intravenous injection (37 kBq in 100 μL of PBS containing 0.1% Tween 80 (PBS-T80)). At 5 min, 30 min, 1 h, 2 h, 6 h, 12 h, or 24 h post-injection, the mice were euthanized (n = 3 per time point). The heart, kidneys, liver, brain, pancreas, spleen, lung, small intestine, large intestine, muscle, skin, stomach, bone, and tumors were excised. Each organ’s weight and radioactivity were measured by a NaI well-type scintillation counter, and the % ID/g was calculated. To investigate the correlation between integrin expression and radioactivity accumulation, biodistribution at 2 h after administration of [^125I]bcRGDpal or [^125I]bcRGDiba was assessed in A549 and U-87 MG co-implantation mice (n = 5) using the same procedure. Additionally, co-implantation mice were injected with [^125I]bcRGDdimer (37 kBq/100 μL PBS-T80) and euthanized at 30 min, 2 h, and 4 h post-injection (n = 4 per time point), and % ID/g values were calculated as described above. The minimum sample size needed for the biodistribution study in U-87 MG-bearing mice was calculated using G Power software version 3.1.9.7. The calculation was based on a two-tailed test, with an effect size of 3.9, a significance level (α) of 0.05, and a statistical power (1 − β) of 0.8. […] The minimum required sample size for the biodistribution study in A549 and U-87 MG co-implantation mice was also calculated to be four animals per group (effect size = 2.5, α = 0.05, 1 − β = 0.8). To guarantee objective results, the experiment was carried out in a blinded manner. Specifically, drug administration and radioactivity measurements were conducted by different investigators to eliminate potential bias.

[1] = 5 min after i.v. administration
[2] = 30 min after i.v. administration

Compound | U87/Blood radioactivity ratio [1] | U87/Blood radioactivity ratio [2] | U87/Muscle radioactivity ratio [2] | U87/Blood radioactivity ratio (1 h after i.v. administration) | U87/Muscle radioactivity ratio (1 h after i.v. administration) | U87/Blood radioactivity ratio (2 h after i.v. administration) | U87/Muscle radioactivity ratio (2 h after i.v. administration) | U87/Blood radioactivity ratio (6 h after i.v. administration) | U87/Muscle radioactivity ratio (6 h after i.v. administration) | Radioactivity in thyroid (12 h after i.v. administration) | U87/Blood radioactivity ratio (12 h after i.v. administration) | U87/Muscle radioactivity ratio (12 h after i.v. administration) | Radioactivity in U-87 MG tumor (24 h after i.v. administration) | Radioactivity in brain (24 h after i.v. administration) | Radioactivity in thyroid (24 h after i.v. administration) | U87/Blood radioactivity ratio (24 h after i.v. administration) | U87/Muscle radioactivity ratio (24 h after i.v. administration) | U87/Muscle radioactivity ratio [1]
CCCCCCCCCCCCCCCC(=O)N[C@@H](CCCCNC(=O)c1cccc(I)c1)C(=O)N1CCC[C@H]1C(=O)N1CCC[C@H]1C(=O)N1CCC[C@H]1C(=O)N[C@@H](CO)C(=O)NCC(=O)Nc1ccc(C(=O)N[C@@H](CO)C(=O)NCC(=O)N[C@H]2CSCc3cc4cc(c3)CSC[C@@H](NC(=O)[C@H](CCC(N)=O)NC(=O)[C@@H]3CCCN3C(=O)[C@H](Cc3c[nH]cn3)NC2=O)C(=O)N[C@@H](CCCNC(=N)N)C(=O)NCC(=O)N[C@@H](CC(=O)O)C(=O)N[C@@H](C(N)=O)CSC4)cc1 [[^125I]bcRGDpal] (Palmitoyl-K(Benzoyl(3-I))PPPSG[4Abz]SGCHPQ[dC]RGD[dC]-NH2; linker 10-14-18 via TBMB) | 0.1 ± 0.0 | 0.3 ± 0.0 | 2.1 ± 0.3 | 0.4 ± 0.1 | 2.9 ± 0.2 | 0.5 ± 0.0 | 3.7 ± 0.4 | 0.5 ± 0.1 | 3.3 ± 0.8 | 0.0 ± 0.0 % injected dose | 0.4 ± 0.0 | 3.4 ± 0.5 | 0.3 % ID/g | 0.0 ± 0.0 % injected dose per gram of tissue | 0.0 ± 0.0 % injected dose | 0.5 ± 0.1 | 2.4 ± 0.4 | 
N=C(N)NCCC[C@@H]1NC(=O)[C@H]2CSCc3cc(cc(c3)CSC[C@H](C(N)=O)NC(=O)[C@H](CC(=O)O)NC(=O)CNC1=O)CSC[C@H](NC(=O)CNC(=O)[C@H](CO)NC(=O)c1ccc(NC(=O)CNC(=O)[C@H](CO)NC(=O)[C@@H]3CCCN3C(=O)[C@@H]3CCCN3C(=O)[C@@H]3CCCN3C(=O)[C@H](CCCCNC(=O)c3cccc(I)c3)NC(=O)CCCc3ccc(I)cc3)cc1)C(=O)N[C@@H](Cc1c[nH]cn1)C(=O)N1CCC[C@H]1C(=O)N[C@@H](CCC(N)=O)C(=O)N2 [[^125I]bcRGDiba] ({Butanoyl(4-(4-I-phenyl))}-K(Benzoyl(3-I))PPPSG[4Abz]SGCHPQ[dC]RGD[dC]-NH2; linker 10-14-18 via TBMB) | 0.1 ± 0.0 | 0.2 ± 0.0 | 2.3 ± 0.6 | 0.2 ± 0.0 | 2.3 ± 0.4 | 0.3 ± 0.0 | 2.4 ± 0.3 | 0.3 ± 0.0 | 2.5 ± 0.3 | 0.0 ± 0.0 % injected dose | 0.4 ± 0.1 | 2.6 ± 0.3 | 0.5 % ID/g | 0.0 ± 0.0 % injected dose per gram of tissue | 0.0 ± 0.0 % injected dose | 0.4 ± 0.1 | 2.1 ± 0.4 | 1.6 ± 0.3
